Patent US20190389903A1, “INSULIN A-CHAIN DERIVED PEPTIDE FRAGMENT AND PHARMACEUTICAL COMPOSITION FOR PREVENTING OR TREATING DIABETES OR DIABETIC WOUNDS, CONTAINING THE SAME” (SUPADELIXIR INC., priority 2017, published 2019)

Legend:
Assay type in all cases: cell-based
[1] = test system: physical interaction between Grb2 and SOS1; assay: Insulin-like activity: Grb2-SOS1 physical interaction by PLA (proximity ligation assay) in HaCaT cells; settings: 1 μM, 5 min, Humulin R at same concentration, FIG. 1
Procedure: When the insulin signal is transmitted into cells, the physical interaction between Grb2 and SOS1 is increased. After treatment of the cells with the peptide of the present invention, the physical interaction between Grb2 and SOS1 was measured through PLA (proximity ligation assay) and thus insulin-like activity was evaluated. 4.5×10^4 HaCaT cells (CLS 300493) were seeded in a DMEM serum medium in each well of a 24-well microplate and cultured in a 5% CO2 incubator at 37° C. for 24 hr, after which the peptide solution of Example 2 was added such that the peptide concentration of SEQ ID NOS: 1 to 6 in the medium was 1 μM, followed by incubation for 5 min under the same conditions. As a positive control, Humulin R was treated at the same concentration. A control received no treatment. The cells of each well were washed with PBS, treated with 2% formaldehyde for 15 min to thus fix the same, and then treated with 0.1% TritonX-100 for 5 min to thus increase antibody permeability into the cells. […] The physical interactions of the Grb2 and SOS1 antibodies were quantified by measuring the PLA signals detected in individual cells using a confocal laser microscope (Olympus FluoView FW1000; Olympus, Tokyo, Japan).

insulin receptor [2] = assay: Immunofluorescence analysis of endocytosis of FITC-conjugated peptide in HaCaT cells; settings: FITC-conjugated peptide 1 μM, 5, 15, 30, 60 min tested, FIG. 2A
Procedure: In order to evaluate whether, like insulin, the peptide of the present invention induces endocytosis by binding to the insulin receptor, immunofluorescence analysis was performed. A fluorescent material (FITC) was conjugated to the peptide of SEQ ID NO: 3. HaCaT cells (CLS 300493) were pretreated in the same manner as in Test Example 1, added with the peptide solution of SEQ ID NO: 3 having the fluorescent material conjugated thereto such that the final concentration was 1 μM, and then treated for 5 min, 15 min, 30 min, and 60 min. The cells were washed three times with a PBS solution and then mounted onto a slide to give a test specimen, which was then observed using a confocal laser microscope (Olympus FluoView FW1000; Olympus, Tokyo, Japan). […] The insulin binds to the insulin receptor in the cells, followed by endocytosis (internalization) and then degradation.

insulin receptor [3] = assay: RNA interference: endocytosis after insulin receptor siRNA transfection in HaCaT cells; settings: FITC-conjugated peptide 1 μM, 5 min, siRNA 10 nM or 30 nM vs no treatment, FIG. 2B
Procedure: Based on the above test results, in order to determine whether the effect of the peptide of the present invention on endocytosis is mediated by the insulin receptor, RNA interference was analyzed. HaCaT cells (CLS 300493) were cultured in a DMEM serum medium until the cells reached 50-60% confluency, followed by transient transfection using the insulin receptor siRNA (Santa Cruz, Calif., USA) (no treatment, 10 nM treatment, or 30 nM treatment) and lipofectamine RNAiMAX (Invitrogen) in accordance with the manufacturer's protocol to thus inhibit the insulin receptor expression, after which the cells were treated for 5 min using the peptide of SEQ ID NO: 3 having the fluorescent material conjugated thereto at a concentration of 1 μM. The fluorescence intensity of each group was observed using a confocal laser microscope (Olympus FluoView FW1000; Olympus, Tokyo, Japan).

HaCaT cells [4] = assay: Cell migration test (Culture-Insert 2 Well); settings: peptide 0.01, 0.1, 1 μM or Humulin R 1 μM for 5 min, observed after 10 hr and 13 hr, FIG. 3
Procedure: For cell migration testing, a Culture-Insert 2 Well (Ibidi™), having two separate culture spaces therein, was used. When cells are cultured on the above plate, the cells are attached to both sides, between which an empty space is formed, followed by removal of the insert well and further culturing, whereby the cells of the two sides migrate to the empty space of the plate. HaCaT cells (CLS 300493) were cultured on the above plate until the cells reached 90% confluency and then the insert well was removed, after which the cells were treated for 5 min with the peptide of SEQ ID NO: 3 (0.01 μM, 0.1 μM, 1 μM) or Humulin R (1 μM), and washed with PBS, after which the medium was replaced with a cell culture medium (DMEM serum medium). After 10 hr and 13 hr, cell migration was observed through a phase contrast microscope.

HaCaT cells [5] = assay: Cell proliferation test (CCK-8); settings: 0.1, 1 and 10 μM in serum-free media, 24, 48 and 72 hr, FIG. 4
Procedure: For cell proliferation testing, 5×10^3 HaCaT cells (CLS 300493) were seeded in each well of a 96-well plate, and then treated with a solution containing the peptide of SEQ ID NO: 3 (total volume: 90 μl) such that the concentrations in serum-free media were 0.1, 1 and 10 μM. Cell proliferation for 24, 48 and 72 hr was observed using a microplate reader (Versa Max, USA). For measurement, treatment was performed for 2 hr using 10 μl of a CCK-8 (cell counting kit-8) solution at the same time every day.

HaCaT cells [6] = assay: 2-NBDG glucose uptake analysis; settings: 0.001, 0.01, 0.1 μM in serum-free media, 5 min, FIG. 5
Procedure: 2-NBDG glucose, which is a fluorescent deoxyglucose analogue, is introduced into cells by a glucose transporter, like glucose, but accumulates without actual metabolism, and thus the extent of glucose uptake may be determined based on the accumulated amount of fluorescence. A 2-NBDG glucose uptake kit (Biovision) was used for 2-NBDG glucose uptake analysis. Specifically, 3×10^4 HaCaT cells (CLS 300493) were seeded in each well of a 24-well plate, cultured in a 5% CO2 incubator at 37° C. for 24 hr with a DMEM serum medium, washed with PBS, and treated with the peptide of SEQ ID NO: 3 and Humulin R such that the concentrations in serum-free media were 0.001 μM, 0.01 μM, and 0.1 μM, followed by incubation for 5 min. A mixed solution of a 2-NBDG reagent and a glucose uptake enhancer was prepared in accordance with the manufacturer's protocol, after which the cells were treated therewith for 1 hr, washed with the supplied cold 1× analysis buffer, and observed using a confocal laser microscope (Olympus FluoView FW1000; Olympus, Tokyo, Japan).

insulin receptor [7] = assay: 2-NBDG glucose uptake after inhibition of insulin receptor expression using siRNA; settings: peptide 1 μM, 5 min; siRNA 10 nM or 30 nM vs no treatment; HaCaT cells; FIG. 6
Procedure: Based on the above test results, in order to evaluate whether, like insulin, the peptide of the present invention enhances glucose uptake through the insulin receptor, insulin receptor expression was inhibited using siRNA, after which 2-NBDG glucose uptake testing was performed. HaCaT cells (CLS 300493) were cultured in a DMEM serum medium until the cells reached 50-60% confluency, followed by transient transfection using the insulin receptor siRNA (Santa Cruz, Calif., USA) (no treatment, 10 nM treatment, or 30 nM treatment) and lipofectamine RNAiMAX (Invitrogen) in accordance with the manufacturer's protocol to thus inhibit insulin receptor expression, after which the cells were treated for 5 min using the peptide of SEQ ID NO: 3 at a concentration of 1 μM. A mixed solution of a 2-NBDG reagent and a glucose uptake enhancer was prepared in accordance with the manufacturer's protocol, after which the cells were treated therewith for 1 hr, washed with the supplied cold 1× analysis buffer, and observed using a confocal laser microscope (Olympus FluoView FW1000; Olympus, Tokyo, Japan).

[8] = test system: glucose transporter (GLUT4); assay: Translocation of glucose transporter to cell membrane by immunofluorescence; settings: HaCaT cells; 0.001, 0.01 and 0.1 μM in serum-free DMEM, 5 min; FIG. 7
Procedure: In addition, the translocation of the glucose transporter to the cell membrane in HaCaT cells was evaluated through immunofluorescence analysis. Specifically, HaCaT cells (CLS 300493) were treated with the peptide of SEQ ID NO: 3 and Humulin R (positive control) at concentrations of 0.001, 0.01 and 0.1 μM in a serum-free DMEM medium for 5 min. The cells were washed with a PBS solution, treated with a GLUT4 antibody (Santa Cruz, Calif., USA) for 1 hr, treated with rhodamine red for 40 min, and observed using a confocal laser microscope (Olympus FluoView FW1000; Olympus, Tokyo, Japan).

Chain of insulin receptor (P06213 28-758 limits assumed): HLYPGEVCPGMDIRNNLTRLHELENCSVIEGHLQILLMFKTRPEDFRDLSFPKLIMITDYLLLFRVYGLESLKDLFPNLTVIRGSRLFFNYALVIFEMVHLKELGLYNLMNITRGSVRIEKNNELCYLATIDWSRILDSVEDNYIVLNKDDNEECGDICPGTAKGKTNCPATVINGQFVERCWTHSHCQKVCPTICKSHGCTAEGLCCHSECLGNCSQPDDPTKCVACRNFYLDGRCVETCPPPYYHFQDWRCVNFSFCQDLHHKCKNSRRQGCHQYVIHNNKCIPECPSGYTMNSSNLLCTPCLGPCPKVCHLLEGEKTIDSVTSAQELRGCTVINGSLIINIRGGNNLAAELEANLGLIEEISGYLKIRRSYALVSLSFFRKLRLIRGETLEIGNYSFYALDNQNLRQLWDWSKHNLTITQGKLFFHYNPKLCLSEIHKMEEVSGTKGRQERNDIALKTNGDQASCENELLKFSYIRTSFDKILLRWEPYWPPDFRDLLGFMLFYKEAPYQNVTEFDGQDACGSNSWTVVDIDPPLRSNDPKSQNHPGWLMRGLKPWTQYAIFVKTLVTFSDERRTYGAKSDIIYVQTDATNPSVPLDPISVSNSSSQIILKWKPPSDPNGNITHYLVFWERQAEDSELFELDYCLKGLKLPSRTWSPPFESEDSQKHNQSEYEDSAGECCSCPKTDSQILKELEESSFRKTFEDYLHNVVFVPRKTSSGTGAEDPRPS
Chain of insulin receptor (P06213 763-1382 partner limits assumed): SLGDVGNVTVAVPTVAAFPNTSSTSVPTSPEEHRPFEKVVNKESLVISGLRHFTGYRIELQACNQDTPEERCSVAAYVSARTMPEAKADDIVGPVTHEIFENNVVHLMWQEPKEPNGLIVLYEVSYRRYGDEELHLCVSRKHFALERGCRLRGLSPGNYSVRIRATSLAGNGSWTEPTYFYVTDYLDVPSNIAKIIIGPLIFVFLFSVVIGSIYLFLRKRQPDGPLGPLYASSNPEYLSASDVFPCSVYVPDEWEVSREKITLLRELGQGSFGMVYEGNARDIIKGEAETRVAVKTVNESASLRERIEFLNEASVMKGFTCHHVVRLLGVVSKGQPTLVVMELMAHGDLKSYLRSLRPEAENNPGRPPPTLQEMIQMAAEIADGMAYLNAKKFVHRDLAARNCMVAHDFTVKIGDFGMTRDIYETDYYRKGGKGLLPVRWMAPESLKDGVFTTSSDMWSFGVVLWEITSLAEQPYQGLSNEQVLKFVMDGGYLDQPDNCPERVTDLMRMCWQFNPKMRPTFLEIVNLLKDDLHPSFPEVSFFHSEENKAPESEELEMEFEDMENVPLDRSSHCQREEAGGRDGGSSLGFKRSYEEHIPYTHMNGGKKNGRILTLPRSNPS

Row | Substance | Grb2/SOS1 antibody interaction (PLA signals) compared to positive control Humulin R [1] | Time after treatment at which highest endocytosis (fluorescence) was observed (insulin receptor [2]) [min] | Incidence of endocytosis in group transiently transfected with insulin receptor siRNA (insulin receptor [3]) | Cell migration (HaCaT cells [4]) | Cell proliferation (HaCaT cells [5]) | Glucose uptake (2-NBDG) (HaCaT cells [6]) | Glucose uptake (2-NBDG) in group transiently transfected with insulin receptor siRNA (insulin receptor [7]) | Amount of glucose transporter (GLUT4) in the cell membrane [8]
1 | Cys-Ser-Leu (CSL; Peptide fragment) [SEQ ID NO: 3] | significantly higher antibody interaction than the positive control | 5 | reduced | increased in a concentration-dependent manner | increased in a concentration-dependent manner | increased in a concentration-dependent manner | reduced | increased in the cell membrane in a concentration-dependent manner
2 | Humulin R: recombinant insulin preparation (injection), used as positive control [reference compound] |  |  |  | increased |  | increased in a concentration-dependent manner |  | increased in the cell membrane in a concentration-dependent manner
